For one assay, the system named is HCT-15. The experiment in a line: Cytotoxicity against HCT15 cell line by SRB assay. The format is functional, Homo sapiens. (Sulforhodamine B stains cellular protein and so reports cell mass.)
Assay [1] concerns Nippostrongylus brasiliensis. The assay is described as follows: Anthelmintic activity against Nippostrongylus brasiliensis. The class given is functional.

Consider `C=CC/C=C\C[C@@H]1CSC(C(C)(C)C(O)C/C=C\CNC(=O)OC)=N1` (stereo partly drawn), for which the IG50 in the assay with HCT-15 is 13 µM.
What is called LC50 is the concentration lethal to half of the exposed cells or organisms. For the compound `C=CCC1COC(C(C)(C)C(C/C=C\CNC(=O)OC)OC(C)=O)=N1` (stereo not drawn), in assay [1], the LC50 turned out to be 40 µM. This compound returned an IG50 in the assay with HCT-15 of 430 µM.
In assay [1], `C=CC/C=C\C[C@@H]1CSC(C(C)(C)C(C/C=C\CNC(=O)OC)OC(C)=O)=N1` (stereo partly drawn) had a 50% lethal concentration (LC50) above 300 µM.
As for `C=CC/C=C\C[C@@H]1COC(C(C)(C)C(C/C=C\CNC(=O)OC)OC(C)=O)=N1` (stereo partly drawn), the LC50 in assay [1] was 40 µM. Also, in the assay on HCT-15, the IG50 was 150 µM.
The compound `CCCSc1ccc2[nH]c(NC(=O)OC)nc2c1` [ALBENDAZOLE] gave an LC50 in assay [1] of 0.34 µM. This lies in the sub-micromolar range.
`CO[C@@]12[C@H](COC(N)=O)C3=C(C(=O)C(C)=C(N)C3=O)N1C[C@@H]1N[C@@H]12` [MITOMYCIN] returned an IG50 with HCT-15 of 1.6 µM.
